This is an account of results in US20240270809A1, “ORAL GLP RECEPTOR AGONISTS” (priority 2020, published 2024).

Positions of bridges follow the written chain, without caps; N, C: chain ends. Non-standard residues stand in square brackets, D forms with d. Residues, ends and D or L forms follow the SMILES beside them. *: point of attachment. Malonyl(2,2-Me2,histaminyl) = CC(C)(C(=O)NCCc1cnc[nH]1)C(=O)*; Ala(1H-tetrazol-5-yl) = N[C@@H](Cc1nnn[nH]1)C(=O)O; αMePhe(2-F) = C[C@](N)(Cc1ccccc1F)C(=O)O; αMeL = CC(C)C[C@](C)(N)C(=O)O; Nle = CCCC[C@H](N)C(=O)O; Aib = CC(C)(N)C(=O)O

What all share (type): cell-based
For one assay, the target named is T1, human GLP1 receptor (Homo sapiens, UniProt P43220).
T1 construct: expressed in transfected cells; host or cells: HEK cells, BacMam virus transduction
T1 sequence (P43220 24-463): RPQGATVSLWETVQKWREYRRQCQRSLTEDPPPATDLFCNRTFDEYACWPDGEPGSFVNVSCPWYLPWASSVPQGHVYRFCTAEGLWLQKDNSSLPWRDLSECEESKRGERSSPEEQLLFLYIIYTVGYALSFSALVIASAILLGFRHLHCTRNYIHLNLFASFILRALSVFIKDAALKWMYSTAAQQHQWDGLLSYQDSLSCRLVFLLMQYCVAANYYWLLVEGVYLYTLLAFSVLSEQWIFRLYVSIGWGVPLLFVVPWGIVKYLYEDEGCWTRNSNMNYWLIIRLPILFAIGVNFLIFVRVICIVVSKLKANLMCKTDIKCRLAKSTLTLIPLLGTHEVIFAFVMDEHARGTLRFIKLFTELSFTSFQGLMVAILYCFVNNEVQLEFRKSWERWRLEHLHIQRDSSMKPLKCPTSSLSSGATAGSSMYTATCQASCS
Description: cAMP accumulation assay, functional agonism of human GLP1 receptor. Conditions: HEK cells infected with human GLP1 receptor BacMam virus, HTRF cAMP; for Emax: HEK293, read-out: Human GLP-1R agonist cAMP Emax; for EC50: read-out: Human GLP-1R agonist cAMP pEC50 (converted). Summed up: (§1)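 Frozen HEK cells, previously BacMam-infected 24 h to express either receptor, are stimulated for 45 min at 37° C in IBMX-containing (0.5 mM) HBSS. The reaction is then terminated with HTRF reagents in lysis buffer.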
(In general: Cyclic AMP is a second messenger, typically raised through Gs and lowered through Gi signalling.)

For a further assay, the target named is T2, human GLP2 receptor (Homo sapiens, UniProt O95838).
T2 construct: expressed in transfected cells; host or cells: HEK cells, BacMam virus transduction
T2 sequence (O95838 1-553): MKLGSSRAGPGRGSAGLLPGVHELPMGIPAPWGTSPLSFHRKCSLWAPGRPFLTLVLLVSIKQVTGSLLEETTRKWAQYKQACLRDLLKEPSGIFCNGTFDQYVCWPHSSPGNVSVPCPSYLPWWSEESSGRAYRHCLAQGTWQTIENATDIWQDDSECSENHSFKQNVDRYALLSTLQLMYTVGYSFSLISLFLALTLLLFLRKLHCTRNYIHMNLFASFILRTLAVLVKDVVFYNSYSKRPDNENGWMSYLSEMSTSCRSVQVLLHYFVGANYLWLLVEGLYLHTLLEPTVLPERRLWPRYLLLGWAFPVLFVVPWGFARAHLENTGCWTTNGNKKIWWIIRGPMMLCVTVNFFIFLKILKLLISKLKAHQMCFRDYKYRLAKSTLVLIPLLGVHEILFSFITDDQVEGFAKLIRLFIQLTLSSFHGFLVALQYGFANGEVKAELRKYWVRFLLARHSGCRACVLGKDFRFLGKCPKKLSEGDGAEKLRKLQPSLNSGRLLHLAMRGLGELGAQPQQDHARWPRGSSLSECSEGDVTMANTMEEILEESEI
The assay can be described thus: cAMP accumulation assay, functional agonism of human GLP2 receptor. Conditions: HEK cells infected with human GLP2 receptor BacMam virus, HTRF cAMP; for Emax: HEK293, read-out: Human GLP-2R agonist cAMP Emax; for EC50: read-out: Human GLP-2R agonist cAMP pEC50 (converted). The procedure, abridged:
as §1

The target in a further assay is T3, mouse GLP2 receptor (Mus musculus, UniProt Q5IXF8).
T3 construct: expressed in transfected cells; host or cells: HEK cells, transient transfection with GeneJuice
T3 sequence (Q5IXF8 1-512): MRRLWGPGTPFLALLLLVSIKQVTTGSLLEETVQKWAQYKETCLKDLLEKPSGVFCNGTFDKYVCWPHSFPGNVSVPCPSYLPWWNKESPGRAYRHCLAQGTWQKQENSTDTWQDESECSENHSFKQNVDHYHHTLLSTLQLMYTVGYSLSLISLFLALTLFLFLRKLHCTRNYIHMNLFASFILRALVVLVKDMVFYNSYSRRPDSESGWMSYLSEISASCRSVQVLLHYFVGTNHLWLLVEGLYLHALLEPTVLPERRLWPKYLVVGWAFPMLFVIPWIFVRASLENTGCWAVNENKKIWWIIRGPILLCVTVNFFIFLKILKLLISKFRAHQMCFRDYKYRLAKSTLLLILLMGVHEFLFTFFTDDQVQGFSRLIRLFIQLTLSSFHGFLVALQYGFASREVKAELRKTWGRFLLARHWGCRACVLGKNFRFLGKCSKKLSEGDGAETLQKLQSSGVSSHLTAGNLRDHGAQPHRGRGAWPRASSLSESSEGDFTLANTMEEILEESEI
The assay can be described thus: cAMP accumulation assay, functional agonism of mouse GLP2 receptor. The note with it: HEK cells transiently transfected with mouse GLP2 receptor, HTRF cAMP; for Emax: HEK293, read-out: Mouse GLP-2R agonist cAMP Emax; for EC50: read-out: Mouse GLP-2R agonist cAMP pEC50 (converted). On the procedure:
CAMP production upon agonist stimulation of mouse GLP2 or GLP1 receptors was assessed utilizing HiRange cAMP kit (Cisbio). In brief, HEK cells were transiently transfected for 24 hours with cDNA using GeneJuice Transfection reagent (EMD Millipore) and frozen at −80° C. for later use in the assay. On the day, various concentrations of compounds were dispensed using ECHO-555 (LabCyte) to a total volume of 100 nl into a low volume 384-well Proxi plate (Perkin Elmer) followed by addition of 10 μl of cell suspension delivering 8000 cells per well. Cells were prepared in the assay buffer (HBSS (Lonza) supplemented with 0.5 mM IBMX (Tocris)). After 45 min incubation at 37° C., the reaction was stopped by addition of the HTRF detection reagents in the lysis buffer provided in the kit. Following 1-hour incubation at RT, plates were read on Pherastar FS (BMG Labtech, Inc.) using standard HTRF settings. Dotmatics Studies software was used for calculation of pEC50 values by fitting data to a four-parameter concentration response curve.

The Emax is the maximal effect, on the per cent scale that the assay sets. Consider `CCCC[C@@H]1NC(=O)[C@H](CCC(=O)O)NC(=O)[C@@H](NC(=O)[C@H](CO)NC(=O)[C@](C)(Cc2ccccc2F)NC(=O)[C@H](CO)NC(=O)[C@@H](C)NC(=O)[C@H](Cc2nn[nH]n2)NC(=O)C(C)(C)C(=O)NCCc2c[nH]cn2)CCCCNC(=O)C[C@@H](C(=O)N[C@@](C)(CC(C)C)C(=O)N[C@@H](CC(C)C)C(=O)N[C@@H](CC(=O)O)C(=O)N[C@H]2CCC(=O)NCCCC[C@@H](C(=O)N[C@@H](CC(=O)O)C(=O)N[C@@H](Cc3ccccc3)C(=O)N[C@H](C(=O)N[C@H]3CCCCNC(=O)C[C@@H](C(=O)N[C@H]4CCC(=O)NCCCC[C@@H](C(N)=O)NC(=O)[C@H]([C@@H](C)O)NC(=O)[C@H]([C@@H](C)CC)NC(=O)[C@H](CCCCN)NC4=O)NC(=O)[C@H]([C@@H](C)CC)NC(=O)[C@H](CC(C)C)NC(=O)[C@H](Cc4c[nH]c5ccccc45)NC3=O)[C@@H](C)CC)NC(=O)[C@H](C)NC(=O)[C@H](C)NC(=O)[C@H](CCCCN)NC2=O)NC(=O)[C@@H](Cc2ccccc2)NC1=O` [Example 56] ({Malonyl(2,2-Me2,histaminyl)}-[Ala(1H-tetrazol-5-yl)][dA]S[αMePhe(2-F)]SKE[Nle][dF]D[αMeL]LDEKAAKDFIKWLIDEKITK-NH2; lactam 6-10, 14-18, 22-26, 27-31 (inferred); C-terminus assumed), for which the figures for the Emax on human GLP1 receptor, at human GLP2 receptor and at mouse GLP2 receptor were 97.3%, 103% and 98.6%, respectively. Moreover, the EC50 is 0.0631 nM on human GLP1 receptor, 0.0126 nM on human GLP2 receptor and 0.631 nM at mouse GLP2 receptor.
Consider `CCCC[C@H](NC(=O)[C@H](CCC(=O)O)NC(=O)[C@@H]1CC(=O)NCCCC[C@H](NC(=O)[C@H](CC(=O)O)NC(=O)C(C)(C)NC(=O)[C@@H](N)Cc2c[nH]cn2)C(=O)N[C@@H](CO)C(=O)N[C@@](C)(Cc2ccccc2F)C(=O)N[C@@H](CO)C(=O)N1)C(=O)N[C@H](Cc1ccccc1)C(=O)N[C@H](C(=O)N[C@@](C)(CC(C)C)C(=O)N[C@@H](CC(C)C)C(=O)N[C@@H](CC(=O)O)C(=O)N[C@H]1CCC(=O)NCCCC[C@@H](C(=O)N[C@@H](CC(=O)O)C(=O)N[C@@H](Cc2ccccc2)C(=O)N[C@H](C(=O)N[C@H]2CCC(=O)NCCCC[C@@H](C(=O)N[C@H]3CCC(=O)NCCCC[C@@H](C(N)=O)NC(=O)[C@H]([C@@H](C)O)NC(=O)[C@H]([C@@H](C)CC)NC(=O)[C@H](CCCCN)NC3=O)NC(=O)[C@H]([C@@H](C)CC)NC(=O)[C@H](CC(C)C)NC(=O)[C@H](Cc3c[nH]c4ccccc34)NC2=O)[C@@H](C)CC)NC(=O)[C@H](C)NC(=O)[C@H](C)NC(=O)[C@H](CCCCN)NC1=O)[C@@H](C)O` [Example 64] (H-H[Aib]DKS[αMePhe(2-F)]SDE[Nle][dF]T[αMeL]LDEKAAKDFIEWLIKEKITK-NH2; lactam 4-8, 16-20, 24-28, 29-33; N-terminus and C-terminus assumed), for which the Emax at human GLP1 receptor is 98%; at human GLP2 receptor, 104%; on mouse GLP2 receptor, 99.7%. In addition, the EC50 at human GLP1 receptor was 0.0251 nM; on human GLP2 receptor it was 0.0398 nM; on mouse GLP2 receptor, 2 nM.
Take `CCCC[C@H](NC(=O)[C@H](CCC(=O)O)NC(=O)[C@@H]1CC(=O)NCCCC[C@H](NC(=O)[C@H](CC(=O)O)NC(=O)C(C)(C)C(=O)NCCc2c[nH]cn2)C(=O)N[C@@H](CO)C(=O)N[C@@](C)(Cc2ccccc2F)C(=O)N[C@@H](CO)C(=O)N1)C(=O)N[C@H](Cc1ccccc1)C(=O)N[C@H](C(=O)N[C@@](C)(CC(C)C)C(=O)N[C@@H](CC(C)C)C(=O)N[C@@H](CC(=O)O)C(=O)N[C@H]1CCC(=O)NCCCC[C@@H](C(=O)N[C@@H](CC(=O)O)C(=O)N[C@@H](Cc2ccccc2)C(=O)N[C@H](C(=O)N[C@H]2CCC(=O)NCCCC[C@@H](C(=O)N[C@H]3CCC(=O)NCCCC[C@@H](C(N)=O)NC(=O)[C@H]([C@@H](C)O)NC(=O)[C@H]([C@@H](C)CC)NC(=O)[C@H](CCCCN)NC3=O)NC(=O)[C@H]([C@@H](C)CC)NC(=O)[C@H](CC(C)C)NC(=O)[C@H](Cc3c[nH]c4ccccc34)NC2=O)[C@@H](C)CC)NC(=O)[C@H](C)NC(=O)[C@H](C)NC(=O)[C@H](CCCCN)NC1=O)[C@@H](C)O` [Example 65] ({Malonyl(2,2-Me2,histaminyl)}-DKS[αMePhe(2-F)]SDE[Nle][dF]T[αMeL]LDEKAAKDFIEWLIKEKITK-NH2; lactam 2-6, 14-18, 22-26, 27-31 (inferred); C-terminus assumed): the Emax is 97.9% on human GLP1 receptor, 102% on human GLP2 receptor and 86.3% at mouse GLP2 receptor. Moreover, the results for the EC50 on human GLP1 receptor, at human GLP2 receptor and on mouse GLP2 receptor were 0.0398 nM, 0.0398 nM and 6.31 nM, respectively.
On to `CCCC[C@H](NC(=O)[C@H](CCC(=O)O)NC(=O)[C@@H]1CCCCNC(=O)CC[C@H](NC(=O)[C@H](CC(=O)O)NC(=O)C(C)(C)NC(=O)[C@@H](N)Cc2c[nH]cn2)C(=O)N[C@@H](CO)C(=O)N[C@@H](Cc2ccccc2)C(=O)N[C@@H](CO)C(=O)N1)C(=O)N[C@H](Cc1ccccc1)C(=O)N[C@H]1CCC(=O)NCCCC[C@@H](C(=O)N[C@H]2CCCCNC(=O)C[C@@H](C(=O)N[C@@H](Cc3ccccc3)C(=O)N[C@H](C(=O)N[C@H]3CCC(=O)NCCCC[C@@H](C(=O)N[C@H]4CCCCNC(=O)CC[C@@H](C(N)=O)NC(=O)[C@H]([C@@H](C)O)NC(=O)[C@H]([C@@H](C)CC)NC(=O)[C@H](CCCCN)NC4=O)NC(=O)[C@H]([C@@H](C)CC)NC(=O)[C@H](CC(C)C)NC(=O)[C@H](Cc4c[nH]c5ccccc45)NC3=O)[C@@H](C)CC)NC(=O)[C@H](CCCCN)NC(=O)[C@H](C)NC(=O)[C@H](C)NC2=O)NC(=O)[C@H](CC(=O)O)NC(=O)[C@H](CC(C)C)NC(=O)[C@H]([C@@H](C)CC)NC1=O` [Example 75] (H-H[Aib]DESFSKE[Nle][dF]EILDKKAAKDFIEWLIKKKITE-NH2; lactam 4-8, 12-16, 17-21, 24-28, 29-33 (inferred); C-terminus assumed), for which the Emax at human GLP1 receptor stood at 95%; on human GLP2 receptor, 102%; on mouse GLP2 receptor it was 81.9%. The figures for the EC50 at human GLP1 receptor, at human GLP2 receptor and at mouse GLP2 receptor were 0.631 nM, 0.0398 nM and 6.31 nM, respectively.
